Data taken from ChEMBL document CHEMBL3763059, “Lanostane-type triterpenes from the fungal endophyte Scleroderma UFSMSc1 (Persoon) Fries” (2016).
Converted amounts (≈) assume the structure as drawn.

Experiments:
Type in all cases: functional
Candida parapsilosis = experiment: Antifungal activity against Candida parapsilosis ATCC 22018 after 48 hrs by micro dilution method; settings: for MIC: Lodderomyces parapsilosis, ATCC 22018, 48 h
Pichia kudriavzevii = experiment: Antifungal activity against Candida krusei ATCC 6258 after 48 hrs by micro dilution method; settings: for MIC: Pichia kudriavzevii, ATCC 6258, 48 h
Candida albicans = experiment: Antifungal activity against Candida albicans ATCC 10231 after 48 hrs by microdilution method; settings: for MIC: Candida albicans, ATCC 10231, 48 h
Candida tropicalis = experiment: Antifungal activity against Candida tropicalis ATCC 18803 after 48 hrs by micro dilution method; settings: for MIC: Candida tropicalis, ATCC 18803, 48 h

| SMILES | MLC (Candida parapsilosis) [µg/mL] | MIC (Candida parapsilosis) [µg/mL] | MLC (Pichia kudriavzevii) [µg/mL] | MIC (Pichia kudriavzevii) [µg/mL] | MLC (Candida albicans) [µg/mL] | MIC (Candida albicans) [µg/mL] | MLC (Candida tropicalis) [µg/mL] | MIC (Candida tropicalis) [µg/mL] |
| --- | --- | --- | --- | --- | --- | --- | --- | --- |
| C=C(C)/C=C/C[C@@H](C)[C@H]1CC[C@@]2(C)C3=C(CC[C@]12C)[C@@]1(C)CC[C@H](O)C(C)(C)[C@@H]1CC3 | 50 (≈ 118 µM) | 25 (≈ 58.9 µM) | 100 (≈ 235 µM) | 12.5 (≈ 29.4 µM) | >100 | 50 (≈ 118 µM) | 100 (≈ 235 µM) | 50 (≈ 118 µM) |
| C[C@H](C/C=C/C(C)(C)O)[C@H]1CC[C@@]2(C)C3=C(CC[C@]12C)[C@@]1(C)CC[C@H](O)C(C)(C)[C@@H]1CC3 (relative stereo) | 100 (≈ 226 µM) | 50 (≈ 113 µM) | 100 (≈ 226 µM) | 12.5 (≈ 28.2 µM) | >100 | 50 (≈ 113 µM) | >100 | 50 (≈ 113 µM) |
| COC(C)(C)/C=C/C[C@@H](C)[C@H]1CC[C@@]2(C)C3=C(CC[C@]12C)[C@@]1(C)CC[C@H](O)C(C)(C)[C@@H]1CC3 (relative stereo) | 25 (≈ 54.7 µM) | 12.5 (≈ 27.4 µM) | 12.5 (≈ 27.4 µM) | 6.25 (≈ 13.7 µM) | 25 (≈ 54.7 µM) | 25 (≈ 54.7 µM) | 25 (≈ 54.7 µM) | 25 (≈ 54.7 µM) |
